Experimental data as given in patent US7591979B2 (priority 2003, dated 2009).
Several values for one entry are separate records, joined by “and”; a condition that tells them apart may be missing. Equal entries are not always repeated.

System: naturally-occurring algae from water samples of the Clinch River
Assay type: cell-based, naturally occurring freshwater algae

In the case of `COP(=S)(OC)Oc1ccc([N+](=O)[O-])cc1` [MPt, Methyl Parathion], the “Percentage (%) decrease in photochemical yield” value is reported as −5.41% and −7.80% and −3.19%.
